Assay [1] has as its target T1, Mitogen-activated protein kinase kinase kinase 19 (Homo sapiens) (UniProt Q56UN5).
T1 sequence (whole entry): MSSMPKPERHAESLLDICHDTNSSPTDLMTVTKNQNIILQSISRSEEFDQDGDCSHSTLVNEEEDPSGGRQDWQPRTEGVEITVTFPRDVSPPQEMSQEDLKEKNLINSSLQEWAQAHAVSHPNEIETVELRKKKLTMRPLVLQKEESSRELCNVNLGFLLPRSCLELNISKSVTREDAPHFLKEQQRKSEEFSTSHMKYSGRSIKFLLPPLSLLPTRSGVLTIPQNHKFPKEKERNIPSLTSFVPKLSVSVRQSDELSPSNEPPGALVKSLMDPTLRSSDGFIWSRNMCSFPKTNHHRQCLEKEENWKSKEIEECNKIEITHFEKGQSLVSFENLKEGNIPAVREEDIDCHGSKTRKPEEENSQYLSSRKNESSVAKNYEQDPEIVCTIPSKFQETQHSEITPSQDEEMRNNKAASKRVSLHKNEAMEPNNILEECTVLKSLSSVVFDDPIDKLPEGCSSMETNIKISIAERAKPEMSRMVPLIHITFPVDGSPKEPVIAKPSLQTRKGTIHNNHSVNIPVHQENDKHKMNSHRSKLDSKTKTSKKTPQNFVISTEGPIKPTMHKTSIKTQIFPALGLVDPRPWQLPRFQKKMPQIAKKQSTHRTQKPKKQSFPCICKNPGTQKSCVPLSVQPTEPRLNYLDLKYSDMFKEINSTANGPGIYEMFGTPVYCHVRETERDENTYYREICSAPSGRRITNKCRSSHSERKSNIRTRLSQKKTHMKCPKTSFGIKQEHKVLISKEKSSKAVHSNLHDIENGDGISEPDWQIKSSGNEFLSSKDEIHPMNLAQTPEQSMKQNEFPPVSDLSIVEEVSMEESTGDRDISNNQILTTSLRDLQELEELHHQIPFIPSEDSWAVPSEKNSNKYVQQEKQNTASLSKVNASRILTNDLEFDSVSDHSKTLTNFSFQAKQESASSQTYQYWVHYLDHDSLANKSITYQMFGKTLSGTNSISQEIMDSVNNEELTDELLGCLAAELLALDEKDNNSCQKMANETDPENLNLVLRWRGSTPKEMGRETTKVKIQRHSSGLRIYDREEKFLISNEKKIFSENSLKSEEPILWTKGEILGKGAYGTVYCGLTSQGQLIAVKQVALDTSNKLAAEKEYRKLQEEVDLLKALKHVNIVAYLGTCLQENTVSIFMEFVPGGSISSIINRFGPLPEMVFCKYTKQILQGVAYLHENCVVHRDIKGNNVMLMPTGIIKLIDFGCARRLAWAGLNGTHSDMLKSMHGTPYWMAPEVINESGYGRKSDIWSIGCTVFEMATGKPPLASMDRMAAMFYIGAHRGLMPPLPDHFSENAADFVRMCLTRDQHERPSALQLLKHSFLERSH
In words: Selectivity interaction (Kinase panel (Z-LYTE Assay)) EUB0001632a MAP3K19. The conditions noted are these: at 10 µM.

Assay [2] deals with Platelet-derived growth factor receptor alpha (Homo sapiens), P16234 [V561D]. The assay is described as follows: (§1) Selectivity interaction (Kinase panel (Z-LYTE Assay)) EUB0001632a PDGFRA. The conditions noted are these: at 10 µM.
Assay [3] has as its target Platelet-derived growth factor receptor alpha (Homo sapiens, UniProt P16234). The assay is described as §1. Particulars: at 10 µM.
The subject of assay [4] is Platelet-derived growth factor receptor alpha (Homo sapiens), P16234 [D842V]. The assay is described as §1. Particulars: at 10 µM.
The test system of assay [5] is Platelet-derived growth factor receptor alpha (Homo sapiens), P16234 [T674I]. The assay is described as §1. The conditions noted are these: at 10 µM.
Platelet-derived growth factor receptor alpha (Homo sapiens), P16234 [T674I], sequence (P16234 whole entry T674I): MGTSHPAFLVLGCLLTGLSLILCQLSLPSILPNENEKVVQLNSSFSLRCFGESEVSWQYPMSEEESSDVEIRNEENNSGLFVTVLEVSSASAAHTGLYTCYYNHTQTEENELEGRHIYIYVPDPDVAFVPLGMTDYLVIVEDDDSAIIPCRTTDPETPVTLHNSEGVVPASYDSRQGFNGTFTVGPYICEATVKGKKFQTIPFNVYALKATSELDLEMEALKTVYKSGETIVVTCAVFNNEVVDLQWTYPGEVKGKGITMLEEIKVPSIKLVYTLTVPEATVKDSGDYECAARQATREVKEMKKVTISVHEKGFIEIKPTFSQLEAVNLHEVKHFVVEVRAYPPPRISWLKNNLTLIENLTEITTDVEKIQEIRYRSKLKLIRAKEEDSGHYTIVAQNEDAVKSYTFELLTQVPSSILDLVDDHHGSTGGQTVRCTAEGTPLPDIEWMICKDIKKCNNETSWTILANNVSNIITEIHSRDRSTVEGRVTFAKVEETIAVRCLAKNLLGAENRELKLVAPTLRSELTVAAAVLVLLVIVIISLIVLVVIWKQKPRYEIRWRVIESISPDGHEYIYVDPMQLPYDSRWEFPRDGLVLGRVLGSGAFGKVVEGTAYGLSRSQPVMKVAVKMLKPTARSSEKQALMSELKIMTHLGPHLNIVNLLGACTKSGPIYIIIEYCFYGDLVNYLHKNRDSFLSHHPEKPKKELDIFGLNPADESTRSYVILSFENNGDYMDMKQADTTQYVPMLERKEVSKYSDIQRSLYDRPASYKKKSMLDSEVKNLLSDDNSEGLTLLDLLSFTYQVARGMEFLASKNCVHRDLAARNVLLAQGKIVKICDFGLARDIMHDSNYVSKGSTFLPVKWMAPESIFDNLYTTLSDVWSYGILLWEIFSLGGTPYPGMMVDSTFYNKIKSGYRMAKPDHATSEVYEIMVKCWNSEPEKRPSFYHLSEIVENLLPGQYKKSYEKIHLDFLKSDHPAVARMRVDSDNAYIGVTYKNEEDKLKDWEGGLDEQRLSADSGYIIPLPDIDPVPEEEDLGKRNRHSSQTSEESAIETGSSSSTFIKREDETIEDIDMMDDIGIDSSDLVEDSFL
The target of assay [6] is Maternal embryonic leucine zipper kinase (Homo sapiens) (UniProt Q14680). Particulars: at 10 µM.
Maternal embryonic leucine zipper kinase (Homo sapiens), sequence (Q14680 whole entry, looked up): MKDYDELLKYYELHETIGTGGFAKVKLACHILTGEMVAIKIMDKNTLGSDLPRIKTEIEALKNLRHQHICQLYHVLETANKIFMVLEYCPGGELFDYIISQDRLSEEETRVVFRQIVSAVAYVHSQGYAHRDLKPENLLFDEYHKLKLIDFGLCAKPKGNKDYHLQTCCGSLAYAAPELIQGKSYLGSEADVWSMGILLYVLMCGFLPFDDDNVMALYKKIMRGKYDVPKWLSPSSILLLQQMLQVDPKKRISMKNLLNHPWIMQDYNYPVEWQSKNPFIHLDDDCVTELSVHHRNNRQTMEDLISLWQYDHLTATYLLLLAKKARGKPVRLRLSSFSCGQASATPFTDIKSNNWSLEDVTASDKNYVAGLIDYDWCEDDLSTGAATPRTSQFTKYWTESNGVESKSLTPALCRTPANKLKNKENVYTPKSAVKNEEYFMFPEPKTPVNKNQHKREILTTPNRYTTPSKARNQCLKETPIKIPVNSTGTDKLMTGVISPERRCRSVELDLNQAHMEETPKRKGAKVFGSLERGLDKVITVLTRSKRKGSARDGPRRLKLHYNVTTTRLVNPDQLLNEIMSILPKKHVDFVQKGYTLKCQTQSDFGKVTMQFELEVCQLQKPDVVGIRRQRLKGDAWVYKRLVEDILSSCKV
Assay [7] deals with MAP kinase-interacting serine/threonine-protein kinase 1 (Homo sapiens) (UniProt Q9BUB5). The assay is described as follows: Selectivity interaction (KinomeScan (DiscoverX)) EUB0000655a MKNK1. Particulars: at 10 µM.
MAP kinase-interacting serine/threonine-protein kinase 1 (Homo sapiens), sequence (Q9BUB5 whole entry, looked up): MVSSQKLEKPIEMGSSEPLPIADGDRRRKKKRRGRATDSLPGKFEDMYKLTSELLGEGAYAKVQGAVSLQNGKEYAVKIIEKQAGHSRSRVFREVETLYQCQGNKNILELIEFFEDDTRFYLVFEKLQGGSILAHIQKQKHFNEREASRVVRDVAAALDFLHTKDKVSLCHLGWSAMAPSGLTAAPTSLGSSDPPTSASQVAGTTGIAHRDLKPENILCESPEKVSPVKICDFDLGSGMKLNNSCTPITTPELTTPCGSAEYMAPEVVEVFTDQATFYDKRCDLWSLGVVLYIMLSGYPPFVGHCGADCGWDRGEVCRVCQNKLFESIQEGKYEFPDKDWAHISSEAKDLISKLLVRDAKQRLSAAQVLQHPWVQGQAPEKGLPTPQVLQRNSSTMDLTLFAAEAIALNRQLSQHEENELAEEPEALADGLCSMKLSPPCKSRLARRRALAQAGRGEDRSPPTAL
Assay [8] has as its target Mitogen-activated protein kinase 10 (Homo sapiens, UniProt P53779). In words: Selectivity interaction (KinomeScan (DiscoverX)) EUB0000618a MAPK10. The conditions noted are these: at 10 µM.
In assay [9] the target is Protein arginine N-methyltransferase 8 (Homo sapiens, UniProt Q9NR22). The assay is described as follows: Selectivity interaction (Methyltransferase screen (radiometric assays, panel of 8 PRMTs, 21 protein lysine methyltransferases, 3 DNA methyltransferases, and one RNA methyltransferase)) EUB0000271b PRMT8.
Protein arginine N-methyltransferase 8, sequence (Q9NR22 2-394 limits assumed): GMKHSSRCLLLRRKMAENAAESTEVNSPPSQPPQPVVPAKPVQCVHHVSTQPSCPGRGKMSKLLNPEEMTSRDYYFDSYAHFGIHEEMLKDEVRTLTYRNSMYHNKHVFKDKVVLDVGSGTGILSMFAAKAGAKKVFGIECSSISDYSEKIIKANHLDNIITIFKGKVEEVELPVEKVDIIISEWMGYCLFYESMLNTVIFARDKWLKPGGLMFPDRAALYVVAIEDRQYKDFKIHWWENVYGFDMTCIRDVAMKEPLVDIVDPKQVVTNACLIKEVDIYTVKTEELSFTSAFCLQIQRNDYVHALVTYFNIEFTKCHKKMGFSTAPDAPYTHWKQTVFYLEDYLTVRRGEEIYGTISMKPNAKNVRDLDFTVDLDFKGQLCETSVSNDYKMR
For assay [10], the target named is Delta-type opioid receptor (Homo sapiens, UniProt P41143). In words: Selectivity interaction (Panel of non-epigenetic targets (kinases, GPCRs, ion channels, and transporters, Eurofins) ) EUB0000271b OPRD1. Particulars: at 1 µM.
In assay [11] the test system is Epidermal growth factor receptor (Homo sapiens), P00533 [UNDEFINED MUTATION]. In words: Selectivity interaction (KinomeScan (DiscoverX)) EUB0000229b EGFR. Particulars: at 1 µM.
Epidermal growth factor receptor (Homo sapiens), P00533 [UNDEFINED MUTATION], sequence (P00533 whole entry, looked up, change not shown): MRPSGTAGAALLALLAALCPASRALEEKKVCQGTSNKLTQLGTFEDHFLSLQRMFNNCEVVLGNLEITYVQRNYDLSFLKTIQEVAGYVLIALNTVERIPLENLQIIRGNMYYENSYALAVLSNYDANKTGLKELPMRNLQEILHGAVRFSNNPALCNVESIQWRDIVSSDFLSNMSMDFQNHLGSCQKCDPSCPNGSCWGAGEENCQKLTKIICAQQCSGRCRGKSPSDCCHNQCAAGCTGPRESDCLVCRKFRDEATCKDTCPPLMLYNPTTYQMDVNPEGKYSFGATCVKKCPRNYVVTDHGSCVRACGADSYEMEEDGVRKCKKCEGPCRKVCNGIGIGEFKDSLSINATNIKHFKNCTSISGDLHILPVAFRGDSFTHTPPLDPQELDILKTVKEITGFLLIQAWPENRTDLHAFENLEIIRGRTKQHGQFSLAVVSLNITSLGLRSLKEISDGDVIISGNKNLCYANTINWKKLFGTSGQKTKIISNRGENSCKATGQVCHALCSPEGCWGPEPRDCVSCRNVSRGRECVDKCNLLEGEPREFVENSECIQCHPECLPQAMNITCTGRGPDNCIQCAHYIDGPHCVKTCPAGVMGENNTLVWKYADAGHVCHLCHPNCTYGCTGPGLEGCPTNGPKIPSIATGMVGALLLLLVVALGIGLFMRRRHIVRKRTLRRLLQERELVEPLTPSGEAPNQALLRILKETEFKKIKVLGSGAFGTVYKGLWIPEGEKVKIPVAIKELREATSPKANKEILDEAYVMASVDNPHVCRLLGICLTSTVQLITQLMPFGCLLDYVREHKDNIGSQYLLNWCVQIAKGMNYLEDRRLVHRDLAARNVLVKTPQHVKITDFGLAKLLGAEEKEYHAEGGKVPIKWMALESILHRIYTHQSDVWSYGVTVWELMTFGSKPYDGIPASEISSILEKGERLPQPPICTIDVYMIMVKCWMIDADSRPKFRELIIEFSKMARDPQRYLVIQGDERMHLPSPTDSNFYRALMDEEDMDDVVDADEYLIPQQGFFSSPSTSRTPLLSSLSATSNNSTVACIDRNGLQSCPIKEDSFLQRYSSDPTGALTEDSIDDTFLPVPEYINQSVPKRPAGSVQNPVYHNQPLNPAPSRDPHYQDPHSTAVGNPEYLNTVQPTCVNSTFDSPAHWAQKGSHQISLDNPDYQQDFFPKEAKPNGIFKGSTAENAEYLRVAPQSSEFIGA
The target of assay [12] is SRSF protein kinase 2 (Homo sapiens) (UniProt P78362). The assay is described as follows: Selectivity interaction (KinomeScan (DiscoverX)) EUB0000229b SRPK2. The conditions noted are these: at 10 µM.
SRSF protein kinase 2 (Homo sapiens), sequence (P78362 whole entry, looked up): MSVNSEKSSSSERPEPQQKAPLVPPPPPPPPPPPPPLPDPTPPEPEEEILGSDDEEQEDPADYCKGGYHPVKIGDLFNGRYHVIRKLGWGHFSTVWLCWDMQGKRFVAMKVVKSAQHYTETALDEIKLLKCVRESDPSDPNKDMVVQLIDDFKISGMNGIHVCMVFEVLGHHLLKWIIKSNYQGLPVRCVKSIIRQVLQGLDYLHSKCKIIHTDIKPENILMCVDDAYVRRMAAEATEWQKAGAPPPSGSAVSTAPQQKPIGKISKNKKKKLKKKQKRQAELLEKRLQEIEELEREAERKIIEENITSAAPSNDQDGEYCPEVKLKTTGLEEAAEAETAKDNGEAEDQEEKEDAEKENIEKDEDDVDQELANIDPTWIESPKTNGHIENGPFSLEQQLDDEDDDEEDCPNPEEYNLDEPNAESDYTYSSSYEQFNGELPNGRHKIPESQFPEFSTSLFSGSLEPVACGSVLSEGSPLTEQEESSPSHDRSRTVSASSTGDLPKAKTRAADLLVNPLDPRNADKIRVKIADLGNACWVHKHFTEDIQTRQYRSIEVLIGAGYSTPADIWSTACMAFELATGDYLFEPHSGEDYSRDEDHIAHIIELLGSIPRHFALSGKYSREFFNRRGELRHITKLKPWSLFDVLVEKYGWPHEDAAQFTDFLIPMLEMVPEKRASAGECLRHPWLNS
In assay [13] the target is Mitogen-activated protein kinase kinase kinase kinase 5 (Homo sapiens) (UniProt Q9Y4K4). In words: Selectivity interaction (Kinase panel (KiNativ target engagement assay in Jurkat cells)) EUB0001635a MAP4K5. The conditions noted are these: Selectivity number of off-targets 0.0, Selectivity number of targets 233.0, Source Knowledge https://www.sciencedirect.com/science/article/pii/S2451945619300674?via%3Dihub, at 1 µM. Type of assay: cell-based.

Mitogen-activated protein kinase 10, sequence (P53779 whole entry): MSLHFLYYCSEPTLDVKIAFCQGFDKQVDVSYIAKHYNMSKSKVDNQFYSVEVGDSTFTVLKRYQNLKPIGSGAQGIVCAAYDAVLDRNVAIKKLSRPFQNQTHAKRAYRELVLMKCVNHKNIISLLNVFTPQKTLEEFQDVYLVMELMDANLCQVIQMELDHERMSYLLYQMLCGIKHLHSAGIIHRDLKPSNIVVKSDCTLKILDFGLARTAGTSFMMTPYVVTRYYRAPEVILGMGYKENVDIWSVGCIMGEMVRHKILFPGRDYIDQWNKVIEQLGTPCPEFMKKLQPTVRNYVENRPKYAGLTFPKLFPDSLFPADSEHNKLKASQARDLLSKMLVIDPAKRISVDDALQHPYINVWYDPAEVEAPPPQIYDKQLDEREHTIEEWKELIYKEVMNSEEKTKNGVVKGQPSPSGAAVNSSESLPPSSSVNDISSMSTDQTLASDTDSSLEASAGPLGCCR

Consider `Cn1cc(-n2cnc3c(NCc4nc5cc(Cl)c(Cl)cc5[nH]4)nc(N4CCOCC4)nc32)cn1`, for which the % of control in assay [1] was -3.06%; in assay [2] it was 19.4%; in assay [3], 8.82%; in assay [4] it was 7.9%; in assay [5] it was 4.9%.

In the case of `CCN(CC)CCCCNc1ncc2cc(-c3cc(OC)cc(OC)c3)c(NC(=O)NC(C)(C)C)nc2n1`, the % of control in assay [6] was determined as 100%.

As to `CN(C)CCOc1ccc(-c2nc(-c3ccncc3)c(-c3ccc4c(c3)CC/C4=N\O)[nH]2)cc1`, in assay [7], the % of control worked out at 81%.

Regarding `O[C@H]1CC[C@H](Nc2ncc3nc(Nc4c(F)cc(F)cc4F)n([C@H]4CCOC4)c3n2)CC1`, the % of control in assay [8] is 0%.

On to `Cc1cc(C)cc([C@@H]2c3cc(C)ccc3NC(=O)CN2C(=O)c2ccc(Br)s2)c1`, for which the % of activity was determined as 101% in [9] (at 1 µM) and 96% in [9] (at 10 µM). Further, in [10], the % of inhibition was -20%.

Take `COc1cc(N(C)c2ccnc3ccc(C(F)(F)F)cc23)cc(OC)c1OC`: the % binding stood at 95% in assay [11] and 94% in assay [12].

With `C=CC(=O)Nc1ccc(C(=O)Nc2[nH]nc3c2CN(C(=O)N[C@H](CN(C)C)c2ccccc2)C3(C)C)cc1`, the % of engagement in [13] was found to be 1.1%.

(Values after ChEMBL document CHEMBL5465560, “Selectivity Literature for EUbOPEN Chemogenomic Library” (2024).)
